From patent publication US9096583B2, “Substituted 1,2,5-oxadiazole compounds and their use as herbicides II” (BASF SE, priority 2011, dated 2015)

Legend:
ALOMY = assay: greenhouse post-emergence herbicidal test, ALOMY; format: in vivo, Alopecurus myosuroides; conditions: post-emergence method, application rate 0.25 kg/ha, scale from 0 to 100
Excerpt: (§1) The seeds of the test plants were sown separately for each species. For the post-emergence treatment, the test plants were first grown to a height of 3 to 15 cm, depending on the plant habit, and only then treated with the active ingredients which had been suspended or emulsified in water. For this purpose, the test plants were either sown directly and grown in the same containers, or they were first grown separately as seedlings and transplanted into the test containers a few days prior to treatment. Depending on the species, the plants were kept at 10-25° C. or 20-35° C. The test period extended over 2 to 4 weeks. During this time, the plants were tended, and their response to the individual treatments was evaluated. Evaluation was carried out using a scale from 0 to 100. 100 means no emergence of the plants, or complete destruction of at least the aerial moieties, and 0 means no damage, or normal course of growth. A good herbicidal activity is given at values of at least 70 and a very good herbicidal activity is given at values of at least 85. [table]

ABUTH = assay: greenhouse post-emergence herbicidal test, ABUTH; format: in vivo, Abutilon theophrasti; conditions: post-emergence method, application rate 1 kg/ha, scale from 0 to 100
Excerpt: as §1

COc1nonc1NC(=O)c1ccc2c(c1Cl)S(=O)(=O)CCC2(C)C [I″.A-8]
herbicidal activity against ALOMY (ALOMY): very good herbicidal activity (a very good herbicidal activity is given at values of at least 85)

Cc1nonc1NC(=O)c1ccc(Cl)c2ncccc12 [I′.A-113]
herbicidal activity against ABUTH (ABUTH): good herbicidal activity (A good herbicidal activity is given at values of at least 70)
